Measurements reported in patent US6387947B1, “Antimicrobial cosmetic compositions” (E-L Management Corp., priority 1997, dated 2002).

Columns and labels:
[1] = test system: Enterics; test: microbial challenge of nonionic oil-in-water emulsion, pool 1; assay type: cell-based
Protocol: (§1) A nonionic oil-in-water emulsion is prepared containing 0.473% 3-furan carboxylic acid. The formulation is divided into five portions, each one getting an inoculation at day 0, and a reinoculation after three weeks, of one of the following microbial cultures: (1)Enterics; (2) Pseudomonas; (3)Staphylococcus; (4)Yeast; and (5)Mold. The concentration of microbes in each individual formulation is calculated on the day of the inoculation, and then again calculated on day 2, and at the end of one, two, three (pre-reinoculation) and four weeks, at a variety of pH values. These are also compared with formulations containing 2-furan carboxylic acid and an identical series of microbes, and an acid pH control emulsion without a furan carboxylic acid added. All numbers, other than those listed as “<10”, are log base 10; thus, for example, “6.6” is equivalent to the presence of […] bacteria. Entries of <10 indicate less than 10 colony forming units, the lowest level of detection.

[2] = test system: Pseudomonas; test: microbial challenge of nonionic oil-in-water emulsion, pool 2; assay type: cell-based
Protocol: as §1

[3] = test system: Staphylococcus; test: microbial challenge of nonionic oil-in-water emulsion, pool 3; assay type: cell-based; settings: for concentration of microbes: 0.375% in emulsion
Protocol: The formulation is divided into five portions, each one getting an inoculation at day 0, and a reinoculation after three weeks, of one of the following microbial cultures: (1)Enterics; (2) Pseudomonas; (3)Staphylococcus; (4)Yeast; and (5)Mold. The concentration of microbes in each individual formulation is calculated on the day of the inoculation, and then again calculated on day 2, and at the end of one, two, three (pre-reinoculation) and four weeks, at a variety of pH values. These are also compared with formulations containing 2-furan carboxylic acid and an identical series of microbes, and an acid pH control emulsion without a furan carboxylic acid added. All numbers, other than those listed as “<10”, are log base 10; thus, for example, “6.6” is equivalent to the presence of […] bacteria. Entries of <10 indicate less than 10 colony forming units, the lowest level of detection.

[4] = test system: Yeast; test: microbial challenge of nonionic oil-in-water emulsion, pool 4; assay type: cell-based; settings: for concentration of microbes: 0.375% in emulsion
Protocol: as §1

[5] = test system: Mold; test: microbial challenge of nonionic oil-in-water emulsion, pool 5; assay type: cell-based; settings: for concentration of microbes: 0.375% in emulsion
Protocol: as §1

[6] = antiirritant effect against Balsam of Peru on ventral forearms of volunteers; assay type: in vivo, human; settings: 0.1% in hydroalcohol 1:1, applied twenty minutes before Balsam of Peru; Minolta Chromameter; seven volunteers
Protocol: Seven volunteers with a history of skin sensitivity to Balsam of Peru are chosen for the study.
The test compounds are applied to the ventral forearms of panelists. The material is allowed to absorb for twenty minutes and then Balsam of Peru, an irritant is applied on the test sites. Skin irritation is measured in terms of increase in skin redness. The degree of redness is measured with a Minolta Chromameter and compared with the controls, the positive control being skin treated with Balsam of Peru alone, and the negative control being a skin site treated with 10% cola solution(a known antiirritant), and challenged like the test products.

[7] = test system: PLA2 enzyme obtained from snake venom; settings: assay concentrations 0.01, 0.1 and 1 mg/ml
Protocol: The enzyme reaction is accomplished in a cuvette containing […] of phosphate buffered saline. Fluorometric substrate NBD-C6-HPC is solubilized 1 mM in EtOH, and is diluted in the reaction mixture to yield a 10 μM final concentration. The assay is initiated with the addition of 0.001 units per μl of PLA2 enzyme obtained from snake venom. Enzyme activity is monitored either with or without the presence of potential inhibitors. […] Prior to enzyme addition, samples are measured fluorometrically at excitation 470 and emission 570 to determine background level of fluorescensce. Following enzyme addition, samples are monitored every 15 minutes over a 60 minute period.

[8] = test system: lymphocyte adhesion to endothelial cells; test: inhibition of lymphocyte adhesion to endothelial cells; assay type: cell-based, human
Protocol: Endothelial cells are grown to confluence and washed thoroughly with basal media prior to the experiment to remove all fetal calf serum. The test compounds are then added to the endothelial culture well and incubated for 2 hours. IL-1β is added to stimulated expression of adhesion molecules on the endothelial cells before lymphocytes are added. Lymphocytes are isolated from blood collected from adult human subjects and added to the endothelial culture wells. PHA is added to stimulate adhesion molecule expression in the lymphocytes and the cultures incubated overnight. After a brief washing procedure, cells are incubated with Rose Bengal, and the number of adherent cells assessed by measuring the absorbance at 570 nm.

[9] = test system: Enterics; test: microbial challenge of nonionic oil-in-water emulsion, pool 1; assay type: cell-based; settings: 0.375% in emulsion
[10] = test system: Pseudomonas; test: microbial challenge of nonionic oil-in-water emulsion, pool 2; assay type: cell-based; settings: 0.375% in emulsion
[11] = test system: Yeast; test: microbial challenge of nonionic oil-in-water emulsion, pool 4; assay type: cell-based; settings: 0.375% in emulsion
[12] = test system: mycobacteria; settings: U.S. Pat. No. 5,387,605; cited from earlier work

Structure (SMILES): O=C(O)c1ccco1 [2-furan carboxylic acid]
- antimicrobial activity against Enterics, in words [1]: does exhibit inhibition
- antimicrobial activity against Pseudomonas, in words [2]: does exhibit inhibition
- antimicrobial activity against Staphylococcus, in words [3]: does exhibit inhibition
- concentration of microbes ([3]; pH 3.0, Day 0): 6.3 log base 10
- concentration of microbes ([3]; pH 3.0, Day 2): <10 colony forming units
- concentration of microbes ([3]; pH 3.0, Week 1): <10 colony forming units
- concentration of microbes ([3]; pH 3.0, Week 2): <10 colony forming units
- concentration of microbes ([3]; pH 3.0, Week 3): <10 colony forming units
- concentration of microbes ([3]; pH 3.0, Week 4): <10 colony forming units
- concentration of microbes ([3]; pH 4.0, Day 0): 6.3 log base 10
- concentration of microbes ([3]; pH 4.0, Day 2): <10 colony forming units
- concentration of microbes ([3]; pH 4.0, Week 1): <10 colony forming units
- concentration of microbes ([3]; pH 4.0, Week 2): <10 colony forming units
- concentration of microbes ([3]; pH 4.0, Week 3): <10 colony forming units
- concentration of microbes ([3]; pH 4.0, Week 4): <10 colony forming units
- concentration of microbes ([3]; pH 5.0, Day 0): 6.3 log base 10
- concentration of microbes ([3]; pH 5.0, Day 2): 2.9 log base 10
- concentration of microbes ([3]; pH 5.0, Week 1): <10 colony forming units
- concentration of microbes ([3]; pH 5.0, Week 2): <10 colony forming units
- concentration of microbes ([3]; pH 5.0, Week 3): <10 colony forming units
- concentration of microbes ([3]; pH 5.0, Week 4): <10 colony forming units
- antimicrobial activity against yeast, in words [4]: very poor level of activity
- concentration of microbes ([4]; pH 3.0, Day 0): 5.7 log base 10
- concentration of microbes ([4]; pH 3.0, Day 2): <10 colony forming units
- concentration of microbes ([4]; pH 3.0, Week 1): <10 colony forming units
- concentration of microbes ([4]; pH 3.0, Week 3): <10 colony forming units
- concentration of microbes ([4]; pH 3.0, Week 4): <10 colony forming units
- concentration of microbes ([4]; pH 4.0, Day 0): 5.7 log base 10
- concentration of microbes ([4]; pH 4.0, Day 2): 3.7 log base 10
- concentration of microbes ([4]; pH 4.0, Week 2): <10 colony forming units
- concentration of microbes ([4]; pH 4.0, Week 3): <10 colony forming units
- concentration of microbes ([4]; pH 4.0, Week 4): >5.7 log base 10
- concentration of microbes ([4]; pH 5.0, Day 0): 5.7 log base 10
- concentration of microbes ([4]; pH 5.0, Day 2): >5.7 log base 10
- concentration of microbes ([4]; pH 5.0, Week 1): >5.7 log base 10
- concentration of microbes ([4]; pH 5.0, Week 4): >5.7 log base 10
- antimicrobial activity against Mold, in words [5]: very poor level of activity
- concentration of microbes ([5]; pH 3.0, Day 0): 5.2 log base 10
- concentration of microbes ([5]; pH 3.0, Day 2): <10 colony forming units
- concentration of microbes ([5]; pH 3.0, Week 1): <10 colony forming units
- concentration of microbes ([5]; pH 3.0, Week 2): <10 colony forming units
- concentration of microbes ([5]; pH 3.0, Week 3): <10 colony forming units
- concentration of microbes ([5]; pH 3.0, Week 4): <10 colony forming units
- concentration of microbes ([5]; pH 4.0, Day 0): 5.2 log base 10
- concentration of microbes ([5]; pH 4.0, Day 2): 1.6 log base 10
- concentration of microbes ([5]; pH 4.0, Week 1): <10 colony forming units
- concentration of microbes ([5]; pH 4.0, Week 2): <10 colony forming units
- concentration of microbes ([5]; pH 4.0, Week 3): <10 colony forming units
- concentration of microbes ([5]; pH 4.0, Week 4): <10 colony forming units
- concentration of microbes ([5]; pH 5.0, Day 0): 5.2 log base 10
- concentration of microbes ([5]; pH 5.0, Day 2): 5.2 log base 10
- concentration of microbes ([5]; pH 5.0, Week 1): 5.2 log base 10
- concentration of microbes ([5]; pH 5.0, Week 2): 5.2 log base 10
- concentration of microbes ([5]; pH 5.0, Week 3): 3.0 log base 10
- concentration of microbes ([5]; pH 5.0, Week 4): >5 log base 10
- effectiveness in preventing the onset of irritation (reduction of skin redness) [6]: 49%
- PLA2 inhibition, in words [7]: capable of inhibiting the activity
- EC-50 of PLA2 inhibition ([7]; calculated from linear fit): 0.5 mg/mL
- inhibition of adhesion of polymorphonuclear leukocytes (PMNs) to activated endothelial cells, in words [8]: ability to inhibit the adhesion
- inhibition of lymphocyte adhesion, in words (absorbance at 570 nm, Rose Bengal) ([8]; concentrations of 0.5% and 1%, IL-1β and PHA stimulated): very potent inhibitors of lymphocyte adhesion
- concentration of microbes ([9]; pH 3.0, Day 0): 6.6 log base 10
- concentration of microbes ([9]; pH 3.0, Week 1): <10 colony forming units
- concentration of microbes ([9]; pH 3.0, Week 2): <10 colony forming units
- concentration of microbes ([9]; pH 3.0, Week 3): <10 colony forming units
- concentration of microbes ([9]; pH 3.0, Week 4): <10 colony forming units
- concentration of microbes ([9]; pH 4.0, Day 0): 6.6 log base 10
- concentration of microbes ([9]; pH 4.0, Week 1): <10 colony forming units
- concentration of microbes ([9]; pH 4.0, Week 4): <10 colony forming units
- concentration of microbes ([9]; pH 5.0, Day 0): 6.6 log base 10
- concentration of microbes ([9]; pH 5.0, Day 2): >6 log base 10
- concentration of microbes ([9]; pH 5.0, Week 1): >6 log base 10
- concentration of microbes ([9]; pH 5.0, Week 3): <10 colony forming units
- concentration of microbes ([9]; pH 5.0, Week 4): <10 colony forming units
- concentration of microbes ([10]; pH 3.0, Week 1): <10 colony forming units
- concentration of microbes ([10]; pH 3.0, Week 3): <10 colony forming units
- concentration of microbes ([10]; pH 3.0, Week 4): <10 colony forming units
- concentration of microbes ([10]; pH 4.0, Day 2): <10 colony forming units
- concentration of microbes ([10]; pH 4.0, Week 3): <10 colony forming units
- concentration of microbes ([10]; pH 4.0, Week 4): <10 colony forming units
- concentration of microbes ([10]; pH 5.0, Day 2): >6 log base 10
- concentration of microbes ([10]; pH 5.0, Week 2): <10 colony forming units
- concentration of microbes ([10]; pH 5.0, Week 3): <10 colony forming units
- concentration of microbes ([11]; pH 3.0, Week 2): <10 colony forming units
- concentration of microbes ([11]; pH 4.0, Week 1): 3.7 log base 10
- concentration of microbes ([11]; pH 5.0, Week 2): >5.7 log base 10
- concentration of microbes ([11]; pH 5.0, Week 3): >5.7 log base 10
- antimicrobial activity against mycobacteria, in words [12]: particularly effective
